From US20220145343A1 (priority 2019, published 2022)
Like-named read-outs stand apart in the source and are kept apart here.

How the values were obtained:
[1] = target: NmSiaDW α2-6-sialyltransferase activity (Neisseria meningitidis, UniProt O33390); assay: Enzyme kinetics by varying CMP-Neu5Ac concentrations, fixed acceptor G2 or G10; assay type: biochemical; conditions: apparent, fixed acceptor 1 mM (row names the acceptor)
Method: Enzyme kinetics by varying donor concentrations. For varying UDP-Gal concentrations, reactions were performed in duplicate at 30° C. for 10 minutes in the presence of MES buffer (100 mM, pH 6.5), MgCl2 (10 mM), S3 or S9 (2 mM), UDP-Gal (0.1, 0.2, 0.5, 1.0, 2.0, 5.0 and 10.0 mM), and NmSiaDW (0.025 μM for S3, 0.031 μM for S9) in a total volume of 20 μL. For varying CMP-Neu5Ac concentrations, reactions were performed in duplicate at 30° C. for 10 minutes in the presence of Tris-HCl buffer (100 mM, pH 8.0), MgCl2 (10 mM), G2 or G10 (1 mM), CMP-Neu5Ac (0.2, 0.5, 1.0, 2.0, 5.0 and 10.0 mM), and NmSiaDW (0.025 μM for G2, 0.062 μM for G10) in a total volume of 20 μL. Data analyses were carried out as described above.
NmSiaDW kinetics studies where the concentrations of the donors were also conducted, using a fixed concentration of a representative short or long acceptor substrate. S3 or S9 was used as the acceptor substrate for varying the concentration of UDP-Gal and G2 or G10 was used as the acceptor substrate for varying the concentration of CMP-Neu5Ac. […] The averages of nonlinear regression standard errors from technical duplicates are shown.

[2] = target: NmSiaDW sialyltransferase activity (Neisseria meningitidis, UniProt O33390); conditions: apparent; varying acceptor, 10 mM CMP-Neu5Ac, pH 8.0, 30° C.
[3] = tested on: α2-6-sialyltransferase activity of NmSiaDW; assay type: biochemical, Neisseria meningitidis
[4] = target: NmSiaDW α1-4-galactosyltransferase activity (Neisseria meningitidis, UniProt O33390); assay type: biochemical; conditions: apparent; varying UDP-Gal, fixed acceptor 2 mM (row names the acceptor)
[5] = target: NmSiaDW galactosyltransferase activity (Neisseria meningitidis, UniProt O33390); conditions: for increase of overall catalytic efficiency (kcat/KM) relative to monosaccharide S1: monosaccharide to nonasaccharide
NmSiaDW [6] = assay: Temperature profile of NmSiaDW activities; assay type: biochemical, Neisseria meningitidis
Method: Assays were carried out in duplicate at different temperatures for 20 min in a total volume of 10 μL in a buffer (MES, 100 mM, pH 6.5 for GalT and Tris-HCl, 100 mM, pH 8.0 for SiaT assays) containing a donor substrate (1.2 mM) (UDP-Gal for GalT and CMP-Neu5Ac for SiaT assays), an acceptor substrate (1 mM) (S1 for GalT and G2 for SiaT assays), MgCl2 (10 mM), and NmSiaDW (19.8 μg for GalT and 0.17 μg for SiaT assays). Reactions were quenched by adding 10 μL of pre-chilled ethanol to the reaction mixture followed by incubation at −20° C. for 30 min. Products were assayed as described above for pH profile studies.

NmSiaDW [7] = assay: Thermostability of NmSiaDW (pre-heated 30 min, then activity assay at 30° C.); assay type: biochemical, Neisseria meningitidis
Method: Enzyme was pre-heated at a given temperature for 30 min, then put on ice for 10 min. Reactions were performed at 30° C. and activity assays were then carried out as described above for the temperature profile assays.

[8] = apparent, varying acceptor, 2 mM UDP-Gal, pH 6.5, 30° C.
[9] = α1-4-galactosyltransferase activity

Q: `CC(=O)N[C@H]1[C@H]([C@H](O)[C@H](O)CO)O[C@@](OCCCNC(=O)OCc2ccccc2)(C(=O)O)C[C@@H]1O[C@H]1O[C@H](CO)[C@H](O)[C@H](O)[C@H]1O` [G2, Galα1-4Neu5AcαProNHCbz] was tested. Which kcat [1] did it give?
A: 7.1 ± 0.2 s⁻¹

Q: What does the source list for `CC(=O)N[C@H]1[C@H]([C@H](O)[C@H](O)CO)O[C@@](OC[C@H]2O[C@H](O[C@H]3C[C@](OC[C@H]4O[C@H](O[C@H]5C[C@](OC[C@H]6O[C@H](O[C@H]7C[C@](OC[C@H]8O[C@H](O[C@H]9C[C@](OCCCNC(=O)OCc%10ccccc%10)(C(=O)O)O[C@@H]([C@H](O)[C@H](O)CO)[C@@H]9NC(C)=O)[C@H](O)[C@@H](O)[C@H]8O)(C(=O)O)O[C@@H]([C@H](O)[C@H](O)CO)[C@@H]7NC(C)=O)[C@H](O)[C@@H](O)[C@H]6O)(C(=O)O)O[C@@H]([C@H](O)[C@H](O)CO)[C@@H]5NC(C)=O)[C@H](O)[C@@H](O)[C@H]4O)(C(=O)O)O[C@@H]([C@H](O)[C@H](O)CO)[C@@H]3NC(C)=O)[C@H](O)[C@@H](O)[C@H]2O)(C(=O)O)C[C@@H]1O[C@H]1O[C@H](CO)[C@H](O)[C@H](O)[C@H]1O` [G10, Galα1(-4Neu5Acα2-6Galα1)4-4Neu5AcαProNHCbz]?
A: kcat [1]: 6.1 ± 0.2 s⁻¹; kcat [2]: 7.03 ± 0.39 s⁻¹

Q: Which Product [3] does the source give for `CO[C@H]1O[C@H](CO)[C@H](O)[C@H](O)[C@H]1O` [GalαOMe] here?
A: Not Detected

Q: `OC[C@H]1O[C@@H](O[C@H]2[C@H](O)[C@@H](O)C(O)O[C@@H]2CO)[C@H](O)[C@@H](O)[C@H]1O` (some centres unmarked) [Galβ1-4Glc] was tested. Which Product [3] did it give?
A: √

Q: How did the kcat [4] turn out when `CC(=O)N[C@H]1[C@H]([C@H](O)[C@H](O)CO)O[C@@](OCCCNC(=O)OCc2ccccc2)(C(=O)O)C[C@@H]1O[C@H]1O[C@H](CO[C@]2(C(=O)O)C[C@H](O)[C@@H](NC(C)=O)[C@H]([C@H](O)[C@H](O)CO)O2)[C@H](O)[C@H](O)[C@H]1O` [S3, Neu5Acα2-6Galα1-4Neu5AcαProNHCbz] was run?
A: 6.3 ± 0.2 s⁻¹

Q: Which kcat [4] does the source give for `CC(=O)N[C@H]1[C@H]([C@H](O)[C@H](O)CO)O[C@@](OCCCNC(=O)OCc2ccccc2)(C(=O)O)C[C@@H]1O[C@H]1O[C@H](CO[C@]2(C(=O)O)C[C@H](O[C@H]3O[C@H](CO[C@]4(C(=O)O)C[C@H](O[C@H]5O[C@H](CO[C@]6(C(=O)O)C[C@H](O[C@H]7O[C@H](CO[C@]8(C(=O)O)C[C@H](O)[C@@H](NC(C)=O)[C@H]([C@H](O)[C@H](O)CO)O8)[C@H](O)[C@H](O)[C@H]7O)[C@@H](NC(C)=O)[C@H]([C@H](O)[C@H](O)CO)O6)[C@H](O)[C@H](O)[C@H]5O)[C@@H](NC(C)=O)[C@H]([C@H](O)[C@H](O)CO)O4)[C@H](O)[C@H](O)[C@H]3O)[C@@H](NC(C)=O)[C@H]([C@H](O)[C@H](O)CO)O2)[C@H](O)[C@H](O)[C@H]1O` [S9, Neu5Acα2(-6Galα1-4Neu5Acα2)4-ProNHCbz] here?
A: 9.0 ± 0.2 s⁻¹

Q: And the Km [5, 8]?
A: < 50 µM

Q: What about the kcat [5, 8] of the same molecule?
A: 5.1 ± 0.3 s⁻¹

Q: And the “acceptor concentration above which substrate inhibition was observed” value ([5]; galactosyltransferase activity, 2 mM UDP-Gal)?
A: higher than 2 mM

Q: What about the “increase of overall catalytic efficiency (kcat/KM) relative to monosaccharide S1” value ([5]; galactosyltransferase activity) of the same molecule?
A: more than 2100 fold

Q: What about the “increase of overall catalytic efficiency (kcat/KM) relative to monosaccharide S1” value ([5]; galactosyltransferase activity, listed as nonasaccharide) of the same molecule?
A: More than 2300 fold

B1: NmSiaDW: recombinant C-terminal His-tagged N. meningitidis serogroup W capsular polysaccharide synthase, SEQ ID NO:2 (protein)
chain: MAVIIFVNGIRAVNGLVKSSINTANAFAEEGLDVHLINFVGNITGAEHLYPPFHLHPNVKTSSIIDLFNDIPENVSCRNTPFYSIHQQFFKAEYSAHYKHVLMKIESLLSAEDSIIFTHPLQLEMYRLANNDIKSKAKLIVQIHGNYMEEIHNYEILARNIDYVDYLQTVSDEMLEEMHSHFKIKKDKLVFIPNITYPISLEKKEADFFIKDNEDIDNAQKFKRISIVGSIQPRKNQLDAIKIINKIKNENYILQIYGKSINKDYFELIKKYIKDNKLQNRILFKGESSEQEIYENTDILIMTSESEGFPYIFMEGMVYDIPIVVYDFKYGANDYSNYNENGCVFKTGDISGMAKKIIELLNNPEKYKELVQYNHNRFLKEYAKDVVMAKYFTILPRSFNNVSLSSAFSRKELDEFQNITFSIEDSNDLAHIWNFELTNPAQNMNFFALVGKRKFPMDAHIQGTQCTIKIAHKKTGNLLSLLLKKRNQLNLSRGYTLIAEDNSYEKYIGAISNKGNFEIIANKKSSLVTINKSTLELHEIPHELHQNKLLIALPNMQTPLKITDDNLIPIQASIKLEKIGNTYYPCFLPSGIFNNICLDYGEESKIINFSKYSYKYIYDSIRHIEQHTDISDIIVCNVYSWELIRASVIESLMEFTGKWEKHFQTSPKIDYRFDHEGKRSMDDVFSEETFIMEFPRKNGIDKKTAAFQNIPNSIVMEYPQTNGYSMRSHSLKSNVVAAKHFLEKLNKIKVDIKFKKHDLANIKKMNRIIYEHLGININIEAFLKPRLEKFKREEKYFHDFFKRNNFKEVIFPSTYWNPGIICAAHKQGIKVSDIQYAAITPYHPAYFKSPKSHYVADKLFLWSEYWNHELLPNPTREIGSGAAYWYALDDVRFSEKLNYDYIFLSQSRISSRLLSFAIEFALKNPQLQLLFSKHPDENIDLKNRIIPDNLIISTESSIQGINESRVAVGVYSTSLFEALACGKQTFVVKYPGYEIMSNEIDSGLFFAVETPEEMLEKTSPNWVAVADIENQFFGQEK
Q: B1 was tested. Which optimal temperature (NmSiaDW [6]; sialyltransferase activity) did it give?
A: 30-37 °C

Q: What about the optimal temperature (NmSiaDW [6]; [9]) of the same molecule?
A: 20-33 °C

Q: And the “incubation temperature at which both glycosyltransferase activities were lost (30 minutes)” value (NmSiaDW [7]; both activities)?
A: 44 °C

Q: And the “temperature up to which activity is retained after 30 minutes incubation” value (NmSiaDW [7]; [9])?
A: up to 33 °C

Q: What about the “incubation temperature above which activity decreased significantly (30 minutes)” value (NmSiaDW [7]; α2-6-sialyltransferase activity) of the same molecule?
A: higher than 30 °C
